Inhibition and Activity data for two compounds are collected here from ChEMBL document CHEMBL3217408 (Medchemcomm, 2013).

Molecules are shown by their SMILES. Activity calls are given as the source filed them. No cut-off for these calls is given here.

Data set [1] concerns the target T1, Transcriptional activator protein LasR (Pseudomonas aeruginosa (strain ATCC 15692 / PAO1 / 1C / PRS 101 / LMG12228)) (UniProt P25084).
T1 sequence (whole entry): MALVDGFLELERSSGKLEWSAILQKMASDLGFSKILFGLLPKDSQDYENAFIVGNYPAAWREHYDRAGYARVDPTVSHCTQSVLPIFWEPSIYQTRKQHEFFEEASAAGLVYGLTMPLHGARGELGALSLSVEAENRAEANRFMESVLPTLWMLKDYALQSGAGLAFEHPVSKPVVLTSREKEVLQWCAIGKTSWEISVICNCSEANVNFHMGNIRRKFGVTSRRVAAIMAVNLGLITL
Put plainly: Antagonist activity at LasR in Pseudomonas aeruginosa PAO1 assessed as inhibition of biofilm formation at 0.3 to 333 uM after 20 hrs by crystal violet staining assay.

Data set [2] relates to Pseudomonas aeruginosa. In words: Antibacterial activity against Pseudomonas aeruginosa PAO1 assessed as inhibition of pyocyanin production at 100 uM after 20 hrs. The class given is functional. The note with it: PAO1, 20 h.
The target of data set [3] is T1, Transcriptional activator protein LasR (Pseudomonas aeruginosa (strain ATCC 15692 / PAO1 / 1C / PRS 101 / LMG12228)). Put plainly: Binding affinity to LasR in Pseudomonas aeruginosa PAO1 at 50 to 100 uM after 24 hrs by gel electrophoresis.
In data set [4] the test system is Pseudomonas aeruginosa. In words: Growth inhibition of lasI-rhlI double mutant Pseudomonas aeruginosa PAO-JP2 harboring lasI promoter coupled to the luxCDABE box measured at >100 uM after 5 hrs. The class given is organism-based. To be noted: in vivo.
For data set [5], the target named is T2, HTH-type quorum-sensing regulator RhlR (Pseudomonas aeruginosa (strain ATCC 15692 / PAO1 / 1C / PRS 101 / LMG12228)) (UniProt P54292).
T2 sequence (whole entry): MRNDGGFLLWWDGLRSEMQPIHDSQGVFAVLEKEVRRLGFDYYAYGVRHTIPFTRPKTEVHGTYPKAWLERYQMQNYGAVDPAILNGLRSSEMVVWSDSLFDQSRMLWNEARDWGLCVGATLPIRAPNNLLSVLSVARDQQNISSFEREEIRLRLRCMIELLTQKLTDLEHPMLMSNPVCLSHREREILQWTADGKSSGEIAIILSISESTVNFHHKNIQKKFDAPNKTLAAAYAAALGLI
Put plainly: Antagonist activity at RhlR in lasI-rhlI double mutant Pseudomonas aeruginosa PAO-JP2 harboring lasI promoter coupled to the luxCDABE box assessed as reduction in C4-HSL induced protein measured at 25 to 200 uM after 5 hrs.

Data set [6] deals with T1, Transcriptional activator protein LasR (Pseudomonas aeruginosa (strain ATCC 15692 / PAO1 / 1C / PRS 101 / LMG12228)). In words: Antagonist activity at LasR in Escherichia coli DH5a harboring reporter plasmid lasI-lacZ (pSC11) pJN105L plasmid assessed as inhibition of 3-oxo-C12-HSL induced protein activation by Miller assay method. To be noted: Escherichia coli DH5[alpha].

Data set [7] shares this target. The note with it: 12 uM.
Description: Antagonist activity at LasR in Pseudomonas aeruginosa PAO1 assessed as inhibition of biofilm formation at 12 uM after 20 hrs by crystal violet staining assay
The target is the same in data set [8]. The note with it: JP2, 50 uM.
Description: Antagonist activity at LasR in lasI-rhlI double mutant Pseudomonas aeruginosa JP2 harboring lasI promoter coupled to the luxCDABE box assessed as reduction in C4-HSL induced luminescence measured at 50 uM after 5 hrs
The target is the same in data set [9]. To be noted: 200 uM.
Description: Inhibition of LasR activation in Pseudomonas aeruginosa PAO1 harboring lasI promoter coupled to the luxCDABE luminescence system assessed as reduction in luminescence measured at 200 uM after 5 hrs
Data set [10] has the same target. The note with it: JP2, 200 uM.
Description: Agonist activity at LasR in lasI-rhlI double mutant Pseudomonas aeruginosa JP2 harboring lasI promoter coupled to the luxCDABE box assessed as reduction in luminescence measured at 200 uM after 5 hrs

Turning to `O=C1C=C(Br)/C(=C/Br)O1`, the inhibition (commonly the percentage by which the read-out fell short of the control) in [1] was “Active”.
As for `C[S+]([O-])CCCCN=C=S` (stereo not given) [SULFORAPHANE], in the data set with Pseudomonas aeruginosa [2], the inhibition at 100 µM was above 70%. The outcome in data set [3] was Active. For the same compound, the Activity result in the data set on Pseudomonas aeruginosa [4] is “Non-toxic”. In addition, the inhibition result in data set [5], in [7], in data set [8] and in data set [9] was “Active” in each case. Moreover, the inhibition result in data set [6] is “Dose-dependent effect”. In addition, the inhibition result in data set [10] was “inactive”.
